The values below come from PMC7144155 (ACS Omega, 2020).

Series [1] has as its system traumatic brain injury. The settings on record: after traumatic brain injury; cited from earlier work.
Series [2] deals with formalin-injected paw model of pain. The note with it: coadministration 450 μg/paw; P < 0.001; cited from earlier work.
Series [3] addresses T1, human dopamine D3 receptor (hD3R) (Homo sapiens, UniProt P35462). Put plainly: GPCR functional assay, agonist effect. The note with it: for % stimulation: D3 (h), % of control response to 300 nM dopamine at 50 μM of anthraquinones. Format: cell-based.
In series [4] the target is T2, human dopamine D4 receptor (hD4R) (Homo sapiens, UniProt P21917).
T2 sequence (P21917 1-419): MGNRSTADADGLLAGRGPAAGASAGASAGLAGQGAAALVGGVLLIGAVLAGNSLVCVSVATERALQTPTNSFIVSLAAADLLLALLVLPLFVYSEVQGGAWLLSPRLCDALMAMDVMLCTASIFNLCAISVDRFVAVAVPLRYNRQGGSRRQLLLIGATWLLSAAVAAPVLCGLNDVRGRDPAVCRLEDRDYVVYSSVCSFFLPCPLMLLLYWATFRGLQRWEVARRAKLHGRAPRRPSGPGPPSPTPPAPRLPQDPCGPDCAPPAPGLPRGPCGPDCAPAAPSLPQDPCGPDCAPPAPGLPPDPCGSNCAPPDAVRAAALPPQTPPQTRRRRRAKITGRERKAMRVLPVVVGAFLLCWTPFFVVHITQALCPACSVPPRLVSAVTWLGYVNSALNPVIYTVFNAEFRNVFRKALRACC
The series is described as follows: GPCR functional assay, agonist effect. The series is classed as cell-based. The note with it: D4 (h); % of control agonist (dopamine) response at 50 μM of anthraquinones.

For series [5], the system named is human glioblastoma U87MG-implanted nude CG1 mice. The settings on record: i.p. 50 mg/(kg day) for 15 days; decreasing Ki67 positive cells; cited from earlier work.
Series [6] has as its target T3, human vasopressin V1A receptor (hV1AR) (Homo sapiens, UniProt P37288). The series is described as follows: GPCR functional assay, agonist effect. Format: cell-based. The settings on record: for % stimulation: V1A (h), % of control response to 1 μM AVP at 50 μM of anthraquinones; for agonist response at hV1AR (in words): up to 50 μM.
Series [7] deals with acetylcholinesterase. The settings on record: cited from earlier work.
Series [8] has as its target T4, human dopamine D1 receptor (hD1R) (Homo sapiens, UniProt P21728). The series is described as follows: GPCR functional assay, agonist effect. Format: cell-based. The note with it: D1 (h); % of control agonist (dopamine) response at 50 μM of anthraquinones.
In series [9] the target is T1, human dopamine D3 receptor (hD3R). Put plainly: GPCR functional assay, antagonist effect. Format: cell-based. The note with it: for % inhibition: D3 (h), % inhibition of control response to 10 nM dopamine at 50 μM of anthraquinones.
Series [10] addresses T3, human vasopressin V1A receptor (hV1AR). The series is described as follows: cell-based.
The subject of series [11] is U87MG cells. The note with it: 20 and 40 μM; cited from earlier work.
The target of series [12] is T5, human 5-HT1A receptor (h5-HT1AR) (Homo sapiens, UniProt P08908).
T5 sequence (P08908 1-422): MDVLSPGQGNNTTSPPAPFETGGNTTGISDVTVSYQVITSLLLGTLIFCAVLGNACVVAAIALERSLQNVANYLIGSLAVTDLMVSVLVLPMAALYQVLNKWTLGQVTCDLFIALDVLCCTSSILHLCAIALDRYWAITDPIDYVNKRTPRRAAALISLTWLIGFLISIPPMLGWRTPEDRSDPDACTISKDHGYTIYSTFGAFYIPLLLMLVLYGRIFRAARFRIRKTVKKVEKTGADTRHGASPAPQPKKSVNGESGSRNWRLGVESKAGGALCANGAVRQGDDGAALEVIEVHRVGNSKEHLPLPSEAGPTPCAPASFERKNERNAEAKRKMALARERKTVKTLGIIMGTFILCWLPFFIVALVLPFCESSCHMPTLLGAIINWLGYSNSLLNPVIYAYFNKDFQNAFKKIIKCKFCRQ
The series is described as follows: GPCR functional assay, antagonist effect. Format: cell-based. The settings on record: for % inhibition: 5-HT1A (h), % inhibition of control response to 30 nM serotonin at 50 μM of anthraquinones.

In series [13] the target is T2, human dopamine D4 receptor (hD4R). The series is described as follows: GPCR functional assay, antagonist effect. The note with it: for inhibition at 50 µM: CHO. Format: cell-based.
In series [14] the target is T5, human 5-HT1A receptor (h5-HT1AR). Put plainly: GPCR functional assay, agonist effect. Format: cell-based. The note with it: 5-HT1A (h); % of control response to serotonin (2.5 μM) at 50 μM of anthraquinones.
Series [15] concerns the target T4, human dopamine D1 receptor (hD1R). The series is described as follows: GPCR functional assay, antagonist effect. Format: cell-based. The settings on record: CHO.
The test system of series [16] is cycloheximide-induced amnesia in rats. The note with it: cited from earlier work.
In series [17] the test system is human epidermoid carcinoma A431 cell. The settings on record: 100 μM, 4 nM (−)-epinephrine, 2 μM nicotinic acid, 8 μM histamine; cited from earlier work.
Series [18] relates to cerebral ischemia/reperfusion (I/R) model rats. The note with it: intraperitoneal injection, 25 g/(kg day); cited from earlier work.
The conditions of series [19]: 20 and 40 mg/kg, rapid phase II metabolism to glucuronide; cited from earlier work.

≈ marks a conversion by molar mass, not a printed value. Where “and” joins values, the source holds several entries; their conditions need not be identical. Equal entries are not always repeated. Bounds are passed on as bounds.

T1 sequence (P35462 whole entry): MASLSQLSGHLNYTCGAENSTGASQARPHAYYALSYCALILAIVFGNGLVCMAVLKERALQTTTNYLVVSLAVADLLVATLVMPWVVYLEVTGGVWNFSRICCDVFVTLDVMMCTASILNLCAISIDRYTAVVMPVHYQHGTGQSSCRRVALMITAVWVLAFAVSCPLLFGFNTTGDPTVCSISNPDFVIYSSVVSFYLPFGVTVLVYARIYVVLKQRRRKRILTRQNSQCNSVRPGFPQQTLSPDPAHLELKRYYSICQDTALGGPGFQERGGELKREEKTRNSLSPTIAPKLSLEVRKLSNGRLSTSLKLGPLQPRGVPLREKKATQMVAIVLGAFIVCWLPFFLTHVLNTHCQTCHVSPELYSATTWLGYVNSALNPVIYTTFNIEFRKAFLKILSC
T3 sequence (P37288 whole entry): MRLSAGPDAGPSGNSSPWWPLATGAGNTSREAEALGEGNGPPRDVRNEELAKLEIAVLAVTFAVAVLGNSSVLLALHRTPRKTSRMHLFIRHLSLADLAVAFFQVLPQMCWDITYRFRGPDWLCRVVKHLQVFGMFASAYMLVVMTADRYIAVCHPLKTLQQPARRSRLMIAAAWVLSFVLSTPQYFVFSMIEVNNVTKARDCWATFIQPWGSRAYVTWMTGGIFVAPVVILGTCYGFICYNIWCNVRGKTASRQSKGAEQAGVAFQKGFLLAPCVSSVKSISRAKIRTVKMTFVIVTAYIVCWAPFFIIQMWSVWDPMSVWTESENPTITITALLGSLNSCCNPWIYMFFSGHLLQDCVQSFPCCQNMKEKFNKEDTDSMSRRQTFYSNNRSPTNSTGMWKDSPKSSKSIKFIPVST
T4 sequence (P21728 whole entry): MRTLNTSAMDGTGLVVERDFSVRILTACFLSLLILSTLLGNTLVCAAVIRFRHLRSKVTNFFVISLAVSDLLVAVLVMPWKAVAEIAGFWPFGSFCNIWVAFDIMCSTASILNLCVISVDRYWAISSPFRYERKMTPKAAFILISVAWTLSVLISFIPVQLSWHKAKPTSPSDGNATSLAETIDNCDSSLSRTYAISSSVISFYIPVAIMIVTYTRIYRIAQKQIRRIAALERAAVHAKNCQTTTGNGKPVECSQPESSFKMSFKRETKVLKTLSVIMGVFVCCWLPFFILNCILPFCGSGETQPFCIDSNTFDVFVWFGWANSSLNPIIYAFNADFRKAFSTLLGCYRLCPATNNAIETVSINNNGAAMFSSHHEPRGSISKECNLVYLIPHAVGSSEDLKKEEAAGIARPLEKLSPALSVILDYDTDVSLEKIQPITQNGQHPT

`COc1ccc(S(=O)(=O)N2c3ccc(Cl)cc3[C@](O)(c3ccccc3Cl)[C@@H]2C(=O)N2CCC[C@H]2C(N)=O)cc1OC` [SR49059, (2S)1-{(2R,3S)-5-chloro-3-(2-chloro-phenyl)-1-(3,4-dimethoxybenzene-sulfonyl)-3-hydroxy-2,3-dihydro-1H-indole-2-carbonyl}pyrrolidine-2-carboxamide]: the brain edema result in [1] is on record as “prevented brain edema”.
For the molecule `COc1ccccc1N1CCN(CC(C(=O)NC(C)(C)C)c2ccccc2)CC1` (stereo not drawn) [WAY 100 135], the “phase 2 (long lasting) intense flinching behavior” value in series [2] is listed as “inhibited”.
For the molecule `O=C1c2cccc(O)c2C(=O)c2c(O)cc(CO)cc21` [aloe-emodin], the “% stimulation” value in series [3] is recorded as “–57.95 ± 32.88%”; in series [4] it was -53.15 ± 7.00%; in series [6], 7.45 ± 1.20%; in series [8], 0.15 ± 4.45%; in series [14], 3.45 ± 0.21%. In series [5], the “effect in mouse brain tumour model” value is on record as “showed antiproliferative effect”. The “agonist response at hV1AR (in words)” value in series [6] is listed as “did not show any agonist response”. Besides, in series [7], the “IC50 (acetylcholinesterase activity)” value is 18.37 mg/L (≈ 68 µM). Also, in series [9], the “hD3R antagonist effect (in words)” value was “mild hD3R antagonist effect”. Moreover, the “% inhibition” value in series [9] was 20.60 ± 6.79%; in series [12], 1.55 ± 3.61%. The “effect on hV1AR (in words)” value in series [10] is recorded as “did not have any observable effect”. Besides, in series [11], the cell cycle effect entry is reported as “induced cell cycle arrest”. Besides, the “antagonist effect on h5-HT1AR (in words)” value in [12] is “remained ineffective”. In series [13], the “hD4R antagonist effect (in words)” value is “mild antagonist effect”. For the same molecule, the inhibition at 50 µM in series [13] is 25.7%; in series [15], -47.9%.
The molecule `Cc1cc(O)c2c(c1)C(=O)c1cc(O)cc(O)c1C2=O` [emodin] displayed a concentration giving a half-maximal response (EC50) in series [3] of 21.9 ± 2.66 µM. The “% stimulation” value is 75.6% and 75.60 ± 12.87% in series [3]; 2.35 ± 2.76% in [4]; “–4.80 ± 0.69%” in series [6]; “–3.55 ± 0.64%” in series [8]; “–3.56 ± 0.21%” in series [14]. The cycloheximide-induced amnesia entry in series [16] is given as “improved cycloheximide-induced amnesia”. Also, the “effect on agonist-induced dynamic mass redistribution signals” value in series [17] was “inhibited”. The “agonist response at hV1AR (in words)” value in series [6] is “did not show any agonist response”. Moreover, the “% inhibition” value in [9] is −10.8 ± 6.59%; in series [10] (V1A (h), % inhibition of control response to 10 nM AVP at 50 μM of anthraquinones), 69.35 ± 1.34%; in series [12], 18.4 ± 3.89%. This molecule showed an IC50 in series [10] of 10.2 ± 1.97 µM. Moreover, in [10] (CHO, read-out: inhibition of 10 nM AVP-induced intracellular Ca2+ concentration), the inhibition at 12.5 µM is above 50%. In addition, the neurological deficit scores entry in series [18] was “improved neurological deficit scores”. Further, in [12], the “antagonist effect on h5-HT1AR (in words)” value is listed as “remained ineffective”. Also, in series [19], the “parent form in vivo after oral administration” value is “almost undetectable”. In addition, the values for the inhibition at 50 µM in series [13] and in series [15] were -0.35% and -10.2%, respectively.
For the molecule `COc1cc(O)cc2c1C(=O)c1c(O)cc(C)cc1C2=O` [questin], the “hD3R agonist effect (in words)” value in series [3] was “moderate hD3R agonist effect”. For the same molecule, the “% stimulation” value in series [3] is 34.85% and 34.85 ± 0.78%; in series [4], “–38.15 ± 15.91%”; in series [6] it was “–3.40 ± 0.71%”; in [8], “–2.10 ± 0.85%”; in [14], 2.45 ± 0.49%. Further, the “agonist response at hV1AR (in words)” value in series [6] is listed as “did not show any agonist response”. The “% inhibition” value in [9] is given as 1.25 ± 7.42%; in series [12], 0.70 ± 4.10%. In series [10], the “effect on hV1AR (in words)” value is “did not have any observable effect”. In series [12], the “antagonist effect on h5-HT1AR (in words)” value is given as “remained ineffective”. Besides, the values for the inhibition at 50 µM in series [13] and in [15] were 4.5% and 10.9%, respectively.
